In ChEMBL document CHEMBL1138648, “Synthesis of new N-(2-(trifluoromethyl)pyridin-4-yl)anthranilic acid derivatives and their evaluation as anticancer agents” (2004):

Columns and labels:
Assay type in all cases: functional
SF-268 [1] = experiment: In vitro percent of proliferation of vehicle treated SF-268 human CNS cell lines was determined at 0.0010 M concentration
NCI-H460 [2] = experiment: In vitro percent of proliferation of vehicle treated NCI-H460 human lung cell lines was determined at 0.0010 M concentration
MCF7 [3] = experiment: In vitro percent of proliferation of vehicle treated MCF-7 human breast cell lines was determined at 0.0010 M concentration
NCI-H23 = experiment: Growth inhibitory activity against non small cell lung cancer NCI-H23 cell line was determined; details: Homo sapiens
MCF7 [4] = experiment: Growth inhibitory activity against Breast cancer MCF-7 cell line was determined; details: Homo sapiens
M14 = experiment: Growth inhibitory activity against Melanoma M14 cell line was determined; details: Homo sapiens
MDA-MB-435 = experiment: Growth inhibitory activity against Breast cancer MDA-MB-435 cell line was determined; details: Homo sapiens
SN12C = experiment: Growth inhibitory activity against Renal cancer SN12C cell line was determined; details: Homo sapiens
HCT-116 = experiment: Growth inhibitory activity against colon cancer HCT116 cell line was determined; details: Homo sapiens
SR = experiment: Growth inhibitory activity against Leukemia SR cell line was determined; details: Homo sapiens
NCI/ADR-RES = experiment: Growth inhibitory activity against Breast cancer NCI/ADR-RES cell line was determined; details: Homo sapiens
MOLT-4 = experiment: Growth inhibitory activity against Leukemia MOLT-4 cell line was determined; details: Homo sapiens
Hs-578T = experiment: Growth inhibitory activity against Breast cancer HS 578T cell line was determined; details: Homo sapiens
OVCAR-3 = experiment: Growth inhibitory activity against Ovarian cancer OVCAR-3 cell line was determined; details: Homo sapiens
KM12 = experiment: Growth inhibitory activity against colon cancer KM12 cell line was determined; details: Homo sapiens
DU-145 = experiment: Growth inhibitory activity against Prostate cancer DU-145 cell line was determined; details: Homo sapiens
HOP-92 = experiment: Growth inhibitory activity against non small cell lung cancer HOP-92 cell line was determined; details: Homo sapiens
HL-60 = experiment: Growth inhibitory activity against Leukemia HL-60(TB) cell line was determined; details: Homo sapiens
A549 = experiment: Growth inhibitory activity against non small cell lung cancer A549/ATCC cells; details: Homo sapiens
SK-MEL-5 = experiment: Growth inhibitory activity against Melanoma SK-MEL-5 cell line was determined; details: Homo sapiens
BT-549 = experiment: Growth inhibitory activity against Breast cancer BT-549 cell line was determined; details: Homo sapiens
SW-620 = experiment: Growth inhibitory activity against colon cancer SW-620 cell line was determined; details: Homo sapiens
SF-539 = experiment: Growth inhibitory activity against CNS cancer SF-539 cell line was determined; details: Homo sapiens
HOP-62 = experiment: Growth inhibitory activity against non small cell lung cancer HOP-62 cell line was determined; details: Homo sapiens
SF-268 [5] = experiment: Growth inhibitory activity against CNS cancer SF-268 cell line was determined; details: Homo sapiens
UACC-62 = experiment: Growth inhibitory activity against Melanoma UACC-62 cell line was determined; details: Homo sapiens
OVCAR-8 = experiment: Growth inhibitory activity against Ovarian cancer OVCAR-8 cell line was determined; details: Homo sapiens
786-0 = experiment: Growth inhibitory activity against Renal cancer 786-0 cell line was determined; details: Homo sapiens
NCI-H322M = experiment: Growth inhibitory activity against non small cell lung cancer NCI-H322M cell line was determined; details: Homo sapiens
CCRF-CEM = experiment: Growth inhibitory activity against Leukemia CCRF-CEM cell line was determined; details: Homo sapiens
RPMI-8226 = experiment: Growth inhibitory activity against Leukemia RPMI-8226 cell line was determined; details: Homo sapiens
OVCAR-5 = experiment: Growth inhibitory activity against Ovarian cancer OVCAR-5 cell line was determined; details: Homo sapiens
HCC 2998 = experiment: Growth inhibitory activity against colon cancer HCC2998 cell line was determined; details: Homo sapiens
NCI-H226 = experiment: Growth inhibitory activity against non small cell lung cancer NCI-H226 cell line was determined; details: Homo sapiens
CAKI-1 = experiment: Growth inhibitory activity against Renal cancer CAKI-1 cell line was determined; details: Homo sapiens
NCI-H460 [6] = experiment: Growth inhibitory activity against non small cell lung cancer H460 cell line was determined; details: Homo sapiens
TK-10 = experiment: Growth inhibitory activity against Renal cancer TK-10 cell line was determined; details: Homo sapiens
K562 = experiment: Growth inhibitory activity against Leukemia K-562 cell line was determined; details: Homo sapiens
SF-295 = experiment: Growth inhibitory activity against CNS cancer SF-295 cell line was determined; details: Homo sapiens
PC-3 = experiment: Growth inhibitory activity against Prostate cancer PC-3 cell line was determined; details: Homo sapiens
NCI-H522 = experiment: Growth inhibitory activity against non small cell lung cancer H522 cell line was determined; details: Homo sapiens
HCT-15 = experiment: Growth inhibitory activity against colon cancer HCT-15 cell line was determined; details: Homo sapiens
MDA-MB-231 = experiment: Growth inhibitory activity against Breast cancer MDA-MB-231/ATCC cell line was determined; details: Homo sapiens
EKVX = experiment: Growth inhibitory activity against non small cell lung cancer EKVX cell line was determined; details: Homo sapiens
UACC-257 = experiment: Growth inhibitory activity against Melanoma UACC-257 cell line was determined; details: Homo sapiens
ACHN = experiment: Growth inhibitory activity against Renal cancer ACHN cell line was determined; details: Homo sapiens
A498 = experiment: Growth inhibitory activity against Renal cancer A498 cell line was determined; details: Homo sapiens

Compound: COCCCNC(=O)c1ccccc1Nc1ccnc(C(F)(F)F)c1
- Proliferation (SF-268 [1]): 97%
- Proliferation (NCI-H460 [2]): 105%
- Proliferation (MCF7 [3]): 70%

Compound: O=C(Oc1cccc(Cl)c1)c1ccccc1Nc1ccnc(C(F)(F)F)c1
- GI50 (NCI-H23): 2.4 µM
- GI50 (MCF7 [4]): 4.8 µM
- GI50 (M14): 1.8 µM
- GI50 (MDA-MB-435): 3 µM
- GI50 (SN12C): 3 µM
- GI50 (HCT-116): 1.6 µM
- GI50 (SR): 0.44 µM
- GI50 (NCI/ADR-RES): 2.2 µM
- Proliferation (SF-268 [1]): 5%
- Proliferation (NCI-H460 [2]): 3%
- GI50 (MOLT-4): 0.93 µM
- GI50 (Hs-578T): 21 µM
- GI50 (OVCAR-3): 3.8 µM
- GI50 (KM12): 9.5 µM
- GI50 (DU-145): 14 µM
- GI50 (HOP-92): 8.7 µM
- GI50 (HL-60): 13 µM
- GI50 (A549): 18 µM
- GI50 (SK-MEL-5): 2.6 µM
- GI50 (BT-549): 6.8 µM
- GI50 (SW-620): 4.4 µM
- GI50 (SF-539): 2.8 µM
- Proliferation (MCF7 [3]): 12%
- GI50 (HOP-62): 25 µM
- GI50 (SF-268 [5]): 3 µM
- GI50 (UACC-62): 2 µM
- GI50 (OVCAR-8): 3.5 µM
- GI50 (786-0): 3.5 µM
- GI50 (NCI-H322M): 23 µM
- GI50 (CCRF-CEM): 0.89 µM
- GI50 (RPMI-8226): 1.8 µM
- GI50 (OVCAR-5): 14 µM
- GI50 (HCC 2998): 3.5 µM
- GI50 (NCI-H226): 2.1 µM
- GI50 (CAKI-1): 2.1 µM
- GI50 (NCI-H460 [6]): 11 µM
- GI50 (TK-10): 85 µM
- GI50 (K562): 3.2 µM
- GI50 (SF-295): 18 µM
- GI50 (PC-3): 7.4 µM
- GI50 (NCI-H522): 4.2 µM
- GI50 (HCT-15): 3.7 µM
- GI50 (MDA-MB-231): 1.7 µM
- GI50 (EKVX): 22 µM

Compound: O=C(Oc1ccc(Cl)cc1)c1ccccc1Nc1ccnc(C(F)(F)F)c1
- GI50 (UACC-257): 4.5 µM
- GI50 (NCI-H23): 2.8 µM
- GI50 (MCF7 [4]): 3.7 µM
- GI50 (M14): 2.1 µM
- GI50 (MDA-MB-435): 2.1 µM
- GI50 (SN12C): 3 µM
- GI50 (SR): 4 µM
- GI50 (NCI/ADR-RES): 16 µM
- Proliferation (SF-268 [1]): 28%
- Proliferation (NCI-H460 [2]): 9%
- GI50 (MOLT-4): 100 µM
- GI50 (Hs-578T): 30 µM
- GI50 (OVCAR-3): 11 µM
- GI50 (KM12): 8.9 µM
- GI50 (DU-145): 19 µM
- GI50 (HOP-92): 21 µM
- GI50 (HL-60): 6.4 µM
- GI50 (A549): 15 µM
- GI50 (SK-MEL-5): 17 µM
- GI50 (BT-549): 15 µM
- GI50 (SW-620): 6.6 µM
- GI50 (ACHN): 11 µM
- GI50 (SF-539): 15 µM
- Proliferation (MCF7 [3]): 24%
- GI50 (SF-268 [5]): 4.4 µM
- GI50 (UACC-62): 2.6 µM
- GI50 (OVCAR-8): 4.1 µM
- GI50 (786-0): 2.7 µM
- GI50 (NCI-H322M): 17 µM
- GI50 (CCRF-CEM): 4.9 µM
- GI50 (RPMI-8226): 2.9 µM
- GI50 (OVCAR-5): 26 µM
- GI50 (HCC 2998): 13 µM
- GI50 (NCI-H226): 2.9 µM
- GI50 (CAKI-1): 2.3 µM
- GI50 (NCI-H460 [6]): 10 µM
- GI50 (TK-10): 18 µM
- GI50 (K562): 3.6 µM
- GI50 (SF-295): 63 µM
- GI50 (PC-3): 17 µM
- GI50 (NCI-H522): 4.3 µM
- GI50 (HCT-15): 2.1 µM
- GI50 (MDA-MB-231): 1.8 µM
- GI50 (EKVX): 25 µM

Compound: O=C(Oc1ccc(Cl)cc1Cl)c1ccccc1Nc1ccnc(C(F)(F)F)c1
- GI50 (UACC-257): 11 µM
- GI50 (NCI-H23): 3.5 µM
- GI50 (MCF7 [4]): 3.6 µM
- GI50 (M14): 1.9 µM
- GI50 (MDA-MB-435): 2.9 µM
- GI50 (SN12C): 3 µM
- GI50 (SR): 0.77 µM
- GI50 (NCI/ADR-RES): 3.6 µM
- Proliferation (SF-268 [1]): 9%
- Proliferation (NCI-H460 [2]): 1%
- GI50 (MOLT-4): 100 µM
- GI50 (Hs-578T): 25 µM
- GI50 (OVCAR-3): 11 µM
- GI50 (KM12): 3.7 µM
- GI50 (DU-145): 16 µM
- GI50 (HOP-92): 12 µM
- GI50 (HL-60): 6.6 µM
- GI50 (A549): 11 µM
- GI50 (SK-MEL-5): 2.8 µM
- GI50 (BT-549): 6.8 µM
- GI50 (SW-620): 4.6 µM
- GI50 (ACHN): 13 µM
- GI50 (SF-539): 3.8 µM
- Proliferation (MCF7 [3]): 3%
- GI50 (SF-268 [5]): 3.1 µM
- GI50 (UACC-62): 2.3 µM
- GI50 (OVCAR-8): 4.8 µM
- GI50 (786-0): 1.9 µM
- GI50 (NCI-H322M): 14 µM
- GI50 (CCRF-CEM): 3.5 µM
- GI50 (A498): 21 µM
- GI50 (RPMI-8226): 2.4 µM
- GI50 (OVCAR-5): 7.9 µM
- GI50 (HCC 2998): 3.2 µM
- GI50 (NCI-H226): 3.4 µM
- GI50 (CAKI-1): 2.1 µM
- GI50 (NCI-H460 [6]): 4.3 µM
- GI50 (TK-10): 4.1 µM
- GI50 (K562): 3 µM
- GI50 (SF-295): 15 µM
- GI50 (PC-3): 8.3 µM
- GI50 (NCI-H522): 4.6 µM
- GI50 (HCT-15): 2.2 µM
- GI50 (MDA-MB-231): 2.2 µM
- GI50 (EKVX): 19 µM

Compound: CSc1ccc(OC(=O)c2ccccc2Nc2ccnc(C(F)(F)F)c2)cc1
- Proliferation (SF-268 [1]): 81%
- Proliferation (NCI-H460 [2]): 68%
- Proliferation (MCF7 [3]): 80%

Compound: CCOC(=O)c1ccccc1Nc1ccnc(C(F)(F)F)c1
- Proliferation (SF-268 [1]): 103%
- Proliferation (NCI-H460 [2]): 102%
- Proliferation (MCF7 [3]): 98%

Compound: O=C(Nc1ccncc1)c1ccccc1Nc1ccnc(C(F)(F)F)c1
- Proliferation (SF-268 [1]): 96%
- Proliferation (NCI-H460 [2]): 99%
- Proliferation (MCF7 [3]): 79%

Compound: COC(=O)c1ccccc1Nc1ccnc(C(F)(F)F)c1
- Proliferation (SF-268 [1]): 103%
- Proliferation (NCI-H460 [2]): 100%
- Proliferation (MCF7 [3]): 96%

Compound: O=C(O)c1ccccc1Nc1ccnc(C(F)(F)F)c1
- Proliferation (SF-268 [1]): 102%
- Proliferation (NCI-H460 [2]): 100%
- Proliferation (MCF7 [3]): 105%

Compound: COc1ccc(OC(=O)c2ccccc2Nc2ccnc(C(F)(F)F)c2)cc1
- Proliferation (SF-268 [1]): 105%
- Proliferation (NCI-H460 [2]): 49%
- Proliferation (MCF7 [3]): 74%

Compound: O=C(Nc1ccccn1)c1ccccc1Nc1ccnc(C(F)(F)F)c1
- Proliferation (SF-268 [1]): 94%
- Proliferation (NCI-H460 [2]): 86%
- Proliferation (MCF7 [3]): 66%

Compound: O=C(Nc1cccnc1)c1ccccc1Nc1ccnc(C(F)(F)F)c1
- Proliferation (SF-268 [1]): 98%
- Proliferation (NCI-H460 [2]): 62%
- Proliferation (MCF7 [3]): 56%
